From US20090111856A1, “Parenteral Formulation Comprising Proton Pump Inhibitor Sterilized in its Final Container by Ionizing Radiation” (priority 2006, published 2009)

Test: Appearance of acid susceptible proton pump inhibitor powders before and after gamma sterilization
Assay type: physicochemical
Settings: for Color change after radiation: gamma sterilization 25 kGy; for Appearance After sterilization (25 kGy) / Appearance Before sterilization: powder; for Appearance After sterilization (25 kGy): after gamma sterilization 25 kGy; for Appearance Before sterilization: before gamma sterilization
Experimental: In addition to esomeprazole sodium exemplified in Example 1, three other acid susceptible proton pump inhibitors, omeprazole sodium, pantoprazole sodium and lansoprazole, were gamma sterilized with a sterilizing dose of 25 kGy. The appearance of the powder was determined before and after gamma sterilization.

Row | SMILES | Color change after radiation | Appearance After sterilization (25 kGy) | Appearance Before sterilization
1 | Cc1c(OCC(F)(F)F)ccnc1C[S+]([O-])c1nc2ccccc2[nH]1 (stereo not shown) [Lansoprazole] | no color change | – | –
2 | COc1ccc2[n-]c([S+]([O-])Cc3ncc(C)c(OC)c3C)nc2c1.[Na+] (stereo not shown) [Omeprazole sodium] | some small (very minor) color changes | Very slightly yellow | White to off-white
3 | COc1ccnc(C[S+]([O-])c2nc3ccc(OC(F)F)cc3[nH]2)c1OC (stereo not shown) [Pantoprazole sodium] | some small (very minor) color changes | Very slightly yellow | White to off-white
